The text below walks through data of ChEMBL document CHEMBL2218064, “Structure-activity relationship data for chemical series of antagonists of the P2X7 receptor (Supplementary Bioactivity Data for publication CHEMBL1157114)”.

As usually defined, the IC50 is the concentration at which inhibition is half-maximal.

In this test the target is T1, P2X purinoceptor 7 (Homo sapiens, UniProt Q99572).
T1 sequence (Q99572 whole entry): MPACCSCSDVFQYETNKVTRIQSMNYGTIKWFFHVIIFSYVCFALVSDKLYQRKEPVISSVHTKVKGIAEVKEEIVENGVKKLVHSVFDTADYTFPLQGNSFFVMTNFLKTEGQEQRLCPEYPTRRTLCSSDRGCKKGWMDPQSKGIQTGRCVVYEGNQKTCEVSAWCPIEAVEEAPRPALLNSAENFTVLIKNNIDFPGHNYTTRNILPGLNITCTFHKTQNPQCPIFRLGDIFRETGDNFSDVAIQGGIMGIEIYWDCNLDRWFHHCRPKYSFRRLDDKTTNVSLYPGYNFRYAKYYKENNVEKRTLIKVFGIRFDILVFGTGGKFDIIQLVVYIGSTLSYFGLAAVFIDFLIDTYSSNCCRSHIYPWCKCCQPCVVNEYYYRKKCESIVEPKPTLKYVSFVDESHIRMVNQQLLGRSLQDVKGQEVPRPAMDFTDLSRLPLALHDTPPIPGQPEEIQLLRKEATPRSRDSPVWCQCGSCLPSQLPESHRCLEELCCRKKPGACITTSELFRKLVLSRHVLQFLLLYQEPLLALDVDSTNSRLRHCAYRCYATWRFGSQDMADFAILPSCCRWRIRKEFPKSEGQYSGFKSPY
The experiment in a line: SUPPLEMENTARY: Inhibition of human P2X7 receptor assessed as inhibition of ethidium bromide accumulation. Same assay as CHEMBL1103860.
On to `CC(C)c1ccccc1N1CCN(C(=O)c2cccc(Cl)c2Cl)CC1=O`, for which the concentration for half-maximal inhibition (IC50) is 10 nM.

As for `Cc1cc(F)ccc1N1CCN(C(=O)c2cccc(Cl)c2Cl)CC1=O`, the concentration for half-maximal inhibition (IC50) is 50.1 nM.

`Cc1cc(F)cc(C)c1N1CCN(Cc2ccc(F)cc2Cl)C(=O)C1=O`: the IC50 was 39.8 nM.

On to `Cc1cc(F)cc(C)c1N1CCN(Cc2ccc(Cl)cc2Cl)C(=O)C1=O`, for which the concentration for half-maximal inhibition (IC50) is 12.6 nM.

`Cc1cc(F)cc(C)c1N1CCN(Cc2cccc(C(F)(F)F)c2Cl)C(=O)C1=O`: the half-inhibitory concentration (IC50) was 50.1 nM.

Regarding `Cc1cc(F)cc(C)c1N1CCN(Cc2cccc(Cl)c2Cl)C(=O)C1=O`, the IC50 is 50.1 nM.

Regarding `Cc1cc(F)cc(C)c1N1CCN(Cc2ccc(F)c(F)c2F)C(=O)C1=O`, the 50% inhibitory concentration (IC50) is 316 nM.

On to `Cc1ccc(N2CCOCC2)cc1N1CCN(C(=O)c2cccc(C(F)(F)F)c2Cl)CC1=O`, for which the IC50 is 15.8 nM.

For the molecule `CN1C(=O)N(c2cncnc2)C[C@H]1C(=O)NCc1cccc(C(F)(F)F)c1Cl`, the IC50 is 12.6 nM.

As for `CN1C(=O)N(c2cncnc2)C[C@H]1C(=O)NCc1ccc(Cl)cc1Cl`, the IC50 was 50.1 nM.

For the molecule `CN1C(=O)N(c2cncnc2)C[C@H]1C(=O)NCc1ccc(F)cc1Cl`, the 50% inhibitory concentration (IC50) is 251 nM.

For `CN1C(=O)N(CCCN2CCOCC2)CC1C(=O)NCc1cccc(C(F)(F)F)c1Cl` (stereo unspecified), the IC50 was 50.1 nM.

As to `Cc1cc(F)cc(C)c1N1CCN(Cc2ccc(F)cc2C(F)(F)F)C(=O)C1=O`, the half-inhibitory concentration (IC50) is 79.4 nM.

Consider `CN(C)c1ccccc1N1CCN(Cc2ccc(F)cc2Cl)C(=O)C1=O`, for which the half-inhibitory concentration (IC50) was 63.1 nM.

For `Cc1cccc(C)c1N1CCN(Cc2cccc(C(F)(F)F)c2Cl)C(=O)C1=O`, the IC50 is 6.31 nM.

With `Cc1cccc(C)c1N1CCN(Cc2cccc(Cl)c2Cl)C(=O)C1=O`, the IC50 was 6.31 nM.

Consider `Cc1cccc(C)c1N1CCN(Cc2ccc(F)c(F)c2F)C(=O)C1=O`, for which the IC50 was 39.8 nM.

As to `Cc1cccc(C)c1N1CCN(Cc2ccc(F)cc2C(F)(F)F)C(=O)C1=O`, the IC50 is 7.94 nM.

As for `Cc1cccc(C)c1N1CCN(Cc2ccc(Cl)cc2Cl)C(=O)C1=O`, the IC50 was 1.58 nM.

As to `Cc1c(Cl)cccc1N1CCN(Cc2ccc(F)cc2Cl)C(=O)C1=O`, the 50% inhibitory concentration (IC50) is 12.6 nM.

In the case of `O=C(c1cccc(C(F)(F)F)c1F)N1CCN(c2ccc(F)cc2Cl)C(=O)C1`, the IC50 is 63.1 nM.

For the molecule `Cc1cc(Br)ccc1N1CCN(Cc2ccc(F)cc2Cl)C(=O)C1=O`, the concentration for half-maximal inhibition (IC50) was 79.4 nM.

Turning to `CN1C(=O)N(c2nccc(C(F)(F)F)n2)C[C@H]1C(=O)NCc1cccc(C(F)(F)F)c1Cl`, the IC50 was 15.8 nM.

Take `CN1C(=O)N(c2nccc(C(F)(F)F)n2)C[C@H]1C(=O)NCc1ccc(Cl)cc1Cl`: the IC50 was 31.6 nM.

In the case of `CN1C(=O)N(c2nccc(C(F)(F)F)n2)C[C@H]1C(=O)NCc1ccc(F)cc1Cl`, the IC50 was 100 nM.

Turning to `Cc1c(N2CCN(Cc3ccc(F)cc3Cl)C(=O)C2=O)cccc1-n1ccnc1`, the IC50 is 50.1 nM.

As for `O=C(c1ccc(F)cc1Cl)N1CCN(c2ccccc2Cl)C(=O)C1`, the IC50 is 39.8 nM.

In the case of `O=C(c1ccc(Cl)cc1Cl)N1CCN(c2ccccc2Cl)C(=O)C1`, the 50% inhibitory concentration (IC50) is 25.1 nM.

For `O=C(c1cccc(Cl)c1Cl)N1CCN(c2ccc(F)cc2Cl)C(=O)C1`, the half-maximal inhibitory concentration (IC50) was 31.6 nM.

As to `O=C(c1cccc(C(F)(F)F)c1Cl)N1CCN(c2ccccc2Cl)C(=O)C1`, the concentration for half-maximal inhibition (IC50) is 5.01 nM.

Take `Cc1ncccc1N1C[C@@H](C(=O)NCc2ccc(F)c(F)c2Cl)N(C)C1=O`: the IC50 is 31.6 nM.

With `Cc1ncccc1N1C[C@@H](C(=O)NCc2cccc(Cl)c2Cl)N(C)C1=O`, the concentration for half-maximal inhibition (IC50) was 39.8 nM.

`COc1c(Cl)cccc1N1CCN(Cc2ccc(F)cc2Cl)C(=O)C1=O`: the half-maximal inhibitory concentration (IC50) is 63.1 nM.

Turning to `O=C1C(=O)N(c2cccc3[nH]ccc23)CCN1Cc1ccc(F)cc1Cl`, the half-inhibitory concentration (IC50) was 12.6 nM.

`O=C(c1cccc(C(F)(F)F)c1Cl)N1CCN(c2ccc(F)cc2Cl)C(=O)C1`: the IC50 is 15.8 nM.

Turning to `Cc1cc(N2C[C@@H](C(=O)NCc3ccc(F)c(F)c3Cl)N(C)C2=O)ccn1`, the IC50 is 31.6 nM.

Take `Cc1nc[nH]c1CN1C[C@@H](C(=O)NCc2ccc(F)c(F)c2Cl)N(C)C1=O`: the IC50 is 200 nM.

On to `O=C(c1cccc(C(F)(F)F)c1Cl)N1CCN(c2ccc(F)cc2)C(=O)C1`, for which the half-maximal inhibitory concentration (IC50) was 25.1 nM.

On to `CN1CCN(C(=O)c2cccc(Cl)c2Cl)CC1=O`, for which the 50% inhibitory concentration (IC50) is 200 nM.

With `O=C1C(=O)N(c2cc(Cl)ccc2N2CCOCC2)CCN1Cc1ccc(F)cc1Cl`, the IC50 is 31.6 nM.

Regarding `COc1c(Br)cccc1N1CCN(Cc2ccc(F)cc2Cl)C(=O)C1=O`, the IC50 is 50.1 nM.

Regarding `CCc1ccccc1N1CCN(Cc2ccc(F)cc2Cl)C(=O)C1=O`, the IC50 was 10 nM.

In the case of `CCN1CCN(C(=O)c2cccc(Cl)c2Cl)CC1=O`, the half-maximal inhibitory concentration (IC50) is 200 nM.

Consider `O=C1CN(C(=O)c2cccc(Cl)c2Cl)CCN1Cc1ccc(F)cc1Cl`, for which the IC50 is 158 nM.

As to `CN1C(=O)N(CCN2CCOCC2)C[C@H]1C(=O)NCc1ccc(F)c(F)c1Cl`, the IC50 is 63.1 nM.

Turning to `CC(C)N1CCN(C(=O)c2cccc(Cl)c2Cl)CC1=O`, the IC50 was 126 nM.

`CC(C)c1ccccc1N1CCN(Cc2ccc(F)cc2Cl)C(=O)C1=O`: the half-maximal inhibitory concentration (IC50) was 7.94 nM.

With `O=C1C(=O)N(c2cc(F)ccc2N2CCOCC2)CCN1Cc1ccc(F)cc1Cl`, the concentration for half-maximal inhibition (IC50) is 15.8 nM.

For the molecule `O=C1C(=O)N(c2cc(Br)ccc2Cl)CCN1Cc1ccc(F)cc1Cl`, the 50% inhibitory concentration (IC50) was 10 nM.

As for `O=C1C(=O)N(c2cccc3c2OCCO3)CCN1Cc1ccc(F)cc1Cl`, the half-maximal inhibitory concentration (IC50) was 251 nM.

With `O=C1C(=O)N(c2cc(F)ccc2F)CCN1Cc1ccc(F)cc1Cl`, the half-maximal inhibitory concentration (IC50) is 158 nM.

In the case of `CC(C)(C)c1ccccc1N1CCN(Cc2ccc(F)cc2Cl)C(=O)C1=O`, the IC50 was 20 nM.

`O=C1C(=O)N(c2ccccc2-n2cccc2)CCN1Cc1ccc(F)cc1Cl`: the half-inhibitory concentration (IC50) is 100 nM.

For the molecule `Cc1cccc(N2CCN(Cc3ccc(F)cc3Cl)C(=O)C2=O)c1F`, the IC50 was 158 nM.

Take `O=C1C(=O)N(c2ccccc2OC(F)(F)F)CCN1Cc1ccc(F)cc1Cl`: the half-maximal inhibitory concentration (IC50) is 31.6 nM.

As to `O=C(c1cccc(Cl)c1Cl)N1CCN(c2ccc(F)cc2F)C(=O)C1`, the concentration for half-maximal inhibition (IC50) was 126 nM.

In the case of `O=C(c1ccc(Cl)cc1Cl)N1CCN(c2ccc(F)cc2F)C(=O)C1`, the half-maximal inhibitory concentration (IC50) was 794 nM.

As to `COc1ccc(Br)cc1N1CCN(Cc2ccc(F)cc2Cl)C(=O)C1=O`, the IC50 is 79.4 nM.

As to `O=C(c1cccc(C(F)(F)F)c1Cl)N1CCN(c2ccc(F)cc2F)C(=O)C1`, the half-maximal inhibitory concentration (IC50) is 63.1 nM.

As to `O=C1C(=O)N(c2ccc(F)cc2Cl)CCN1Cc1ccc(F)cc1Cl`, the IC50 is 200 nM.

In the case of `O=C1C(=O)N(c2cccc3ncccc23)CCN1Cc1ccc(F)cc1Cl`, the IC50 is 501 nM.

Take `O=C1C(=O)N(c2cncc3ccccc23)CCN1Cc1ccc(F)cc1Cl`: the IC50 was 158 nM.

Consider `Cc1cccc(C)c1N1CCN(Cc2ccc(F)cc2Cl)C(=O)C1=O`, for which the IC50 is 3.16 nM.

As for `O=C1C(=O)N(c2ccccc2I)CCN1Cc1ccc(F)cc1Cl`, the concentration for half-maximal inhibition (IC50) is 7.94 nM.

Take `C[C@H]1CN(Cc2ccc(Cl)cc2Cl)C(=O)C(=O)N1c1ccccc1`: the IC50 is 158 nM.

In the case of `Cc1cc(F)ccc1N1CCN(Cc2ccc(F)cc2Cl)C(=O)C1=O`, the IC50 was 251 nM.

On to `CN1C(=O)N(c2cn(C)cn2)C[C@H]1C(=O)NCc1ccc(F)c(F)c1Cl`, for which the half-maximal inhibitory concentration (IC50) was 15.8 nM.

Take `CN1C(=O)N(c2nccn2C)C[C@H]1C(=O)NCc1ccc(F)c(F)c1Cl`: the concentration for half-maximal inhibition (IC50) was 39.8 nM.

Regarding `CN1C(=O)N(c2ccnn2C)C[C@H]1C(=O)NCc1ccc(F)c(F)c1Cl`, the IC50 is 20 nM.

Take `CN1C[C@@H](C(=O)NCc2cccc(C(F)(F)F)c2Cl)NC1=O`: the IC50 is 63.1 nM.

`CN1C[C@@H](C(=O)NCc2ccc(F)cc2Cl)NC1=O`: the IC50 is 794 nM.

For the molecule `COc1cccc(N2CCN(Cc3ccc(F)cc3Cl)C(=O)C2=O)c1Cl`, the half-inhibitory concentration (IC50) is 25.1 nM.

Take `CN1CCOc2cccc(N3CCN(Cc4ccc(F)cc4Cl)C(=O)C3=O)c21`: the IC50 is 251 nM.

On to `O=C1C(=O)N(c2ccccc2C(F)(F)F)CCN1Cc1ccc(F)cc1Cl`, for which the IC50 is 15.8 nM.

For `O=C(c1cccc(Cl)c1Cl)N1CCN(c2cccc3ccccc23)C(=O)C1`, the IC50 was 15.8 nM.

Take `COc1ccc(N2CCOCC2)cc1N1CCN(Cc2ccc(F)cc2Cl)C(=O)C1=O`: the 50% inhibitory concentration (IC50) is 50.1 nM.

For `O=C(c1cccc(C(F)(F)F)c1Cl)N1CCN(c2cccc3ccccc23)C(=O)C1`, the half-maximal inhibitory concentration (IC50) was 12.6 nM.

Consider `O=C1C(=O)N(c2ccccc2-c2ccccc2)CCN1Cc1ccc(F)cc1Cl`, for which the IC50 was 126 nM.

Regarding `Cc1c(Br)cccc1N1CCN(Cc2ccc(F)cc2Cl)C(=O)C1=O`, the IC50 is 50.1 nM.

For the molecule `Cc1c(F)ccc(N2CCN(Cc3ccc(F)cc3Cl)C(=O)C2=O)c1C`, the IC50 was 200 nM.

For the molecule `CN1C(=O)N(CCN2CCOCC2)CC1C(=O)NCc1cccc(C(F)(F)F)c1Cl` (stereo unspecified), the half-inhibitory concentration (IC50) is 25.1 nM.

For `CC(C)c1ccccc1N1CCN(C(=O)c2cccc(C(F)(F)F)c2Cl)CC1=O`, the IC50 is 7.94 nM.

`CN1C(=O)N(CCN2CCOCC2)CC1C(=O)NCc1ccc(Cl)cc1Cl` (stereo unspecified): the IC50 is 79.4 nM.

On to `Cc1ccc(N2CCOCC2)cc1N1CCN(C(=O)c2cccc(Cl)c2Cl)CC1=O`, for which the IC50 is 15.8 nM.

With `CN1C(=O)N(CCN2CCOCC2)CC1C(=O)NCc1ccc(F)cc1Cl` (stereo unspecified), the half-inhibitory concentration (IC50) is 251 nM.

On to `CC(C)c1ccccc1N1CCN(C(=O)c2ccc(F)cc2Cl)CC1=O`, for which the IC50 was 31.6 nM.
